ChEMBL document CHEMBL4425117 (Bioorg Med Chem Lett, 2016)

Key:
Endothelin-1 receptor [1] = biological target: T1, Endothelin-1 receptor (Homo sapiens, UniProt P25101); assay: Displacement of [125I]-ET-1 from human ETA receptor expressed in CHO cell membranes after 2 hrs by scintillation counting
T1 sequence (P25101 whole entry): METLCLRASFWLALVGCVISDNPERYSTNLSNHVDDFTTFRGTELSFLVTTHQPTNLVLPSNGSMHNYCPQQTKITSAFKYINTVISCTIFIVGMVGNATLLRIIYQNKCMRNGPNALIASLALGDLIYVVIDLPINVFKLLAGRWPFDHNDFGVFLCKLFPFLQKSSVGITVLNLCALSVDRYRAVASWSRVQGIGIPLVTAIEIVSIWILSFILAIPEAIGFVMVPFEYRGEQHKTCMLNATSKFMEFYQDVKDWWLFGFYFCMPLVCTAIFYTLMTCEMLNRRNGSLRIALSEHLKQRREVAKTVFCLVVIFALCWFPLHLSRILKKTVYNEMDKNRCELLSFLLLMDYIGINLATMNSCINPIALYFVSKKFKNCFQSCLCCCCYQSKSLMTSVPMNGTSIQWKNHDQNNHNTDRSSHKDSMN

[2] = biological target: T2, Endothelin receptor type B (Homo sapiens, UniProt P24530); assay: Displacement of [125I]-ET-1 from human ETB receptor expressed in CHO cell membranes after 2 hrs by scintillation counting
T2 sequence (P24530 whole entry): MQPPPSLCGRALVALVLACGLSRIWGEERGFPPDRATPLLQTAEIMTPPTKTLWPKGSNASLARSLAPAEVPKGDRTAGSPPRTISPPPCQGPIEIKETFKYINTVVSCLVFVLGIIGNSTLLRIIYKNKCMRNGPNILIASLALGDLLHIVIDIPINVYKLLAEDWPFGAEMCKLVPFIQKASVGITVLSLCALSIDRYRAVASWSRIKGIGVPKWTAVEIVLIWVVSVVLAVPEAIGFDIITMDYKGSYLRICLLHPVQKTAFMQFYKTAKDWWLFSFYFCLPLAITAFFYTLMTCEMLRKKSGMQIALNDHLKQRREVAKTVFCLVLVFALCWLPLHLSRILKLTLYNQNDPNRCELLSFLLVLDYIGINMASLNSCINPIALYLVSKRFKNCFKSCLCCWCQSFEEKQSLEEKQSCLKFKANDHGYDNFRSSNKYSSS

Endothelin-1 receptor [3] = biological target: T1, Endothelin-1 receptor; assay: Displacement of 125I-ET1 from human placenta cell membrane ETA receptor expressed in Baculovirus-infected insect cells
[4] = biological target: T3, Endothelin receptor type B (Sus scrofa, UniProt P35463); assay: Displacement of 125I-ET1 from pig ETB receptor transfected in grivet COS7 cells; format: cell-based
T3 sequence (P35463 whole entry): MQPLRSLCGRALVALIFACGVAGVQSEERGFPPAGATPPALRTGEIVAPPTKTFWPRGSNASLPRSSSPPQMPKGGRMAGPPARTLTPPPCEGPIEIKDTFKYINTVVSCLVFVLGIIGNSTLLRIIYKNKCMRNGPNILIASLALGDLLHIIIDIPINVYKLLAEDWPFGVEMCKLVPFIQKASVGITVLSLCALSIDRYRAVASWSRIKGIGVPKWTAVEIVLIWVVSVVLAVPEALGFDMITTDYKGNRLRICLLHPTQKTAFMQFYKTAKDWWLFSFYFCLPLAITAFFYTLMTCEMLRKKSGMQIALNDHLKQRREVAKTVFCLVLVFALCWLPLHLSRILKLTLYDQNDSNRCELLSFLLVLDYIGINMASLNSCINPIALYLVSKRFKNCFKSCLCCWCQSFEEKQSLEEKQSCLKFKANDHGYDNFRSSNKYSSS

[5] = biological target: T2, Endothelin receptor type B; assay: Displacement of radioligand from ETB receptor in human placenta cell membranes
Endothelin-1 receptor [6] = biological target: T1, Endothelin-1 receptor; assay: Displacement of 125I-ET1 from ETA receptor (unknown origin) expressed in CHO cells; format: cell-based
Endothelin-1 receptor [7] = biological target: T1, Endothelin-1 receptor; assay: Displacement of radioligand from ETA receptor (unknown origin) expressed in fall armyworm sf9 cell membranes
Endothelin-1 receptor [8] = biological target: T4, Endothelin-1 receptor (Rattus norvegicus, UniProt P26684); assay: Antagonist activity at rat aortic ring ETA receptor in presence of ET1; details: read-out: pA2 (converted)
T4 sequence (P26684 whole entry): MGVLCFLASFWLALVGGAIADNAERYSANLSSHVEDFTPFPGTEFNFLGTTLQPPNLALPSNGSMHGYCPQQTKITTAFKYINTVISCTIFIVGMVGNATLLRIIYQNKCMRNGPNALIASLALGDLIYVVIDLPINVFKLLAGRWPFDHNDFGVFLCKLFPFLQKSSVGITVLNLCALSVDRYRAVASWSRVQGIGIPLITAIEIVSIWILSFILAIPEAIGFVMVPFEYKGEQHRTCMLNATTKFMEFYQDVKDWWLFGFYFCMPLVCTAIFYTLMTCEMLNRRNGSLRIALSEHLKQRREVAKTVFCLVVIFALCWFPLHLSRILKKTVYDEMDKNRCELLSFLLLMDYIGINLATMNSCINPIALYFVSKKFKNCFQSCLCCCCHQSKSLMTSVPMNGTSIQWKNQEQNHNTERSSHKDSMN

Endothelin-1 receptor [9] = biological target: T4, Endothelin-1 receptor; assay: Displacement of 125I-ET1 from ETA receptor in rat A7R5 cells; format: cell-based
Endothelin-1 receptor [10] = biological target: T1, Endothelin-1 receptor; assay: Antagonist activity at ETA receptor (unknown origin)
[11] = biological target: T2, Endothelin receptor type B; assay: Antagonist activity at human ETB receptor expressed in CHO cells in presence of ET1; format: cell-based

IC50 (Endothelin-1 receptor [1]) [nM]	IC50 [2] [nM]	SMILES	other results
29	3.5	Cc1ccc(=O)n([C@@H](C(=O)NS(=O)(=O)c2ccc(C(C)C)cc2)c2ccc3c(c2)OCO3)n1	
1.4	90	CCCNS(=O)(=O)Nc1ncnc(OCCOc2ncc(SC)cn2)c1Oc1cccc(OC)c1	
		Cc1ccc(-c2c(NS(=O)(=O)c3ccc(C(C)(C)C)cc3)ncnc2OCCO)cc1	IC50 (Endothelin-1 receptor [3]): 1000 nM
		Cc1ccc(-c2c(NS(=O)(=O)c3ccc(C(C)(C)CO)cc3)ncnc2OCCOc2ncc(Br)cn2)cc1	IC50 [4]: 41 nM
9.4	315	CCCNS(=O)(=O)Nc1ncnc(OCCOc2ncc(SC)cn2)c1Oc1ccccc1OC	
		CCCc1nc(C)ccc1O[C@@H](C(=O)NS(=O)(=O)c1ccc(C(C)C)cc1)c1ccc2c(c1)OCO2	Ki (Endothelin-1 receptor [1]): 0.11 nM; Ki [2]: 25 nM
		COc1ccccc1Oc1c(NS(=O)(=O)c2ccc(C)cn2)nc(-c2ccnc(-c3nnn[nH]3)c2)nc1OCCO [CLAZOSENTAN]	IC50 [5]: 175 nM; IC50 (Endothelin-1 receptor [6]): 1.7 nM
		COc1ccccc1Oc1c(NS(=O)(=O)c2ccccc2)nc(-c2ncccn2)nc1OCCO	IC50 (Endothelin-1 receptor [7]): 1500 nM
15.4	1430	CCCNS(=O)(=O)Nc1ncnc(OCCOc2ncc(Br)cn2)c1Oc1ccccc1OC	
		COc1cc(OC)nc(O[C@H](C(=O)O)C(OC)(c2ccccc2)c2ccccc2)n1	Ki (Endothelin-1 receptor [1]): 6 nM; Ki [2]: 371 nM
3.3	555	CNS(=O)(=O)Nc1ncnc(OCCOc2ncc(SC)cn2)c1-c1ccc(Cl)cc1	
		COc1ccc(Cl)c(Oc2c(NS(=O)(=O)c3ccc(C(C)(C)C)cc3)nc(N3CCOCC3)nc2OCCO)c1	IC50 (Endothelin-1 receptor [3]): 35 nM
0.7		O=C(O)CCNS(=O)(=O)Nc1ncnc(OCCOc2ncc(Br)cn2)c1-c1ccc(Br)cc1	
2.4	516	CCCNS(=O)(=O)Nc1ncnc(OCCOc2ncc(OC)cn2)c1-c1ccc(Br)cc1	
1	100	COc1ccccc1Oc1c(NS(=O)(=O)CCc2cccs2)nc(N2CCOCC2)nc1OCCOC(=O)Nc1ccccn1	
		COc1ccccc1Oc1c(NS(=O)(=O)c2ccc(C(C)C)cn2)nc(-c2ccnc(-c3nnn[nH]3)c2)nc1OCCO [TEZOSENTAN]	IC50 [5]: 21 nM; IC50 (Endothelin-1 receptor [6]): 18 nM
1	42	COc1ccccc1Oc1c(NS(=O)(=O)c2ccc(C(C)C)cn2)nc(N2CCOCC2)nc1OCC#CCOC(=O)c1ccccn1	Kb (Endothelin-1 receptor [8]): 20 nM
		COc1ccccc1Oc1c(NS(=O)(=O)c2ccc(C(C)C)cn2)nc(-c2ccncc2)nc1OC	IC50 (Endothelin-1 receptor [3]): 1.4 nM
6	288	COc1ccccc1Oc1c(NS(=O)(=O)c2ccc(C)cn2)nc(-c2ccnc(-c3noc(=S)[nH]3)c2)nc1OCC1CCCO1 (stereo not given)	
3	542	COc1ccc(Cl)c(Oc2c(NS(C)(=O)=O)ncnc2OCCOc2ncc(S(C)(=O)=O)cn2)c1	
0.3		CCCCNS(=O)(=O)Nc1ncnc(OCCOc2ncc(SC)cn2)c1-c1ccc(Cl)cc1	
1	1800	Cc1ccc(C2=C(C(=O)O)C(c3ccc4c(c3)OCO4)Oc3ccc(OC(C)C)cc32)s1 (stereo not given)	
		COc1ccccc1Oc1c(NS(=O)(=O)/C=C/c2ccccc2)nc(-c2ncccn2)nc1OCCO	IC50 (Endothelin-1 receptor [9]): 1.6 nM
		CC(C)(C)c1ccc(S(=O)(=O)Nc2nc(-c3ncccn3)nc(OCCO)c2Oc2ccccc2O)cc1	IC50 (Endothelin-1 receptor [7]): 26000 nM
0.1	82	CCCNS(=O)(=O)Nc1ncnc(OCCOc2ncc(SC)cn2)c1-c1ccc(Br)cc1	

IC50 (Endothelin-1 receptor [1]) [nM]	IC50 [2] [nM]	SMILES	other results
		COc1ccccc1Oc1c(OCCO)nc(-c2ncccn2)nc1N(C)S(=O)(=O)c1ccc(C(C)(C)C)cc1	IC50 (Endothelin-1 receptor [7]): > 100000 nM
2	290	CNS(=O)(=O)Nc1ncnc(OCCOc2ncc(SC)cn2)c1-c1ccc(Br)cc1	
		O=S(=O)(Nc1ncnc(OCCO)c1-c1ccc(Cl)cc1)c1ccc(C(F)(F)F)cc1	IC50 (Endothelin-1 receptor [7]): 18000 nM; IC50 [5]: 2000 nM; Kb (Endothelin-1 receptor [8]): 1580 nM
1.1		CCCc1nc(SC2CCC(CC(=O)O)CC2)c(C(=O)O)n1Cc1cc2c(cc1Cl)OCO2 (stereo not given)	
33	29	CC#CCOc1nc(-c2ccnc(-c3nnn[nH]3)c2)nc(NS(=O)(=O)c2ccc(C(C)(C)C)cc2)c1Oc1ccccc1OC	
0.5	210	CCCCNS(=O)(=O)Nc1ncnc(OCCOc2ncc(OC)cn2)c1-c1ccc(Br)cc1	
		COc1ccccc1Oc1c(NS(=O)(=O)c2ccc(C(C)(C)C)cc2)nc(-c2ncccn2)[nH]c1=O	IC50 (Endothelin-1 receptor [7]): 133000 nM
2	569	COc1cnc(OCCOc2nc(-c3ccncc3)nc(NS(=O)(=O)NCc3ccccc3)c2-c2ccc(Cl)cc2)nc1	
1		COC(c1ccccc1)(c1ccccc1)[C@H](Oc1nc(C)cc(C)n1)C(=O)O [AMBRISENTAN]	
		COc1ccccc1Oc1c(NS(=O)(=O)c2ccc(C(C)(C)C)cc2)ncnc1OCCO	IC50 (Endothelin-1 receptor [7]): 1500 nM; Kb (Endothelin-1 receptor [8]): 955 nM
		COc1cccc(Oc2c(NS(=O)(=O)c3ccc(SC)cc3)cc(C(=O)Nc3ccccc3)cc2OCCO)c1	IC50 (Endothelin-1 receptor [3]): > 100000 nM
		COc1ccccc1Oc1c(NS(=O)(=O)c2ccc(C(C)(C)C)cc2)nc(-c2ncccn2)nc1OCCO [BOSENTAN]	Kb (Endothelin-1 receptor [8]): 39.8 nM
		COc1ccccc1Oc1c(NS(=O)(=O)CCc2ccccc2)nc(-c2ncccn2)nc1OCCO	IC50 (Endothelin-1 receptor [10]): 25 nM
		COc1ccccc1Oc1c(NS(=O)(=O)c2ccc(C(C)(C)C)cc2)nc(N2CCOCC2)nc1OCCC(=O)Nc1ccccc1C(C)C	IC50 (Endothelin-1 receptor [9]): 63 nM; IC50 [4]: 0.86 nM
0.3	63	CCCCNS(=O)(=O)Nc1ncnc(OCCOc2ncc(SC)cn2)c1-c1ccc(Br)cc1	
	> 100	COc1nc(C)cnc1NS(=O)(=O)c1cccnc1-c1ccc(-c2nnco2)cc1 [ZIBOTENTAN]	
		O=S(=O)(Nc1ncnc(OCCO)c1-c1ccc(Cl)cc1)c1ccc(Cl)cc1	IC50 (Endothelin-1 receptor [7]): 10000 nM; IC50 [5]: 8500 nM
		COc1ccc(-c2nc(NS(=O)(=O)c3ccc(C(C)(C)C)cc3)c(Oc3ccccc3OC)c(OC[C@H](O)CO)n2)cc1	IC50 (Endothelin-1 receptor [7]): 6800 nM; IC50 [11]: 69 nM
		COc1ccccc1Oc1c(NS(=O)(=O)c2ccc(C(C)(C)C)cc2)nc(-c2ccccc2)nc1OCCO	IC50 (Endothelin-1 receptor [7]): 800 nM; Kb (Endothelin-1 receptor [8]): 126 nM
2		Cc1ccc(-c2c(NS(=O)(=O)/C=C/c3ccccc3)ncnc2OCCOc2ncc(Br)cn2)cc1	
		COCCOc1nc(-c2ncccn2)nc(NS(=O)(=O)CCc2ccccc2)c1Oc1ccccc1OC	IC50 (Endothelin-1 receptor [9]): 3.6 nM
		COc1ccccc1Cc1c(NS(=O)(=O)c2ccc(C(C)(C)C)cc2)ncnc1OCCO	IC50 (Endothelin-1 receptor [3]): 2000 nM
1.5	686	CCCNS(=O)(=O)Nc1ncnc(OCCOc2ncc(SC)cn2)c1-c1ccc(Cl)cc1	
0.7		CCNS(=O)(=O)Nc1ncnc(OCCOc2ncc(SC)cn2)c1-c1ccc(Br)cc1	
		CSc1cnc(OCCOc2ncnc(NS(=O)(=O)c3ccc(C(C)(C)C)cc3)c2-c2cc3ccccc3s2)nc1	IC50 (Endothelin-1 receptor [9]): 0.026 nM
